Test results taken from PMC1851959, “Structure, substrate recognition and reactivity of Leishmania major mevalonate kinase” (BMC Structural Biology, 2007).

Assays:
[1] = biological target: T1, LmMK (recombinant, bacterially expressed) (Leishmania major, UniProt Q4Q6K7); assay: X-ray crystal structure of complex, […] A (also radioactive kinase assay); type: binding
T1 construct: gene LMJF_31_0560; pET15b (NdeI/XhoI), E. coli BL21(DE3), N-terminal His-tag removed by thrombin; about 329 residues, monomer, about 35 kDa; 3 C-terminal residues disordered
T1 sequence (Q4Q6K7 1-329): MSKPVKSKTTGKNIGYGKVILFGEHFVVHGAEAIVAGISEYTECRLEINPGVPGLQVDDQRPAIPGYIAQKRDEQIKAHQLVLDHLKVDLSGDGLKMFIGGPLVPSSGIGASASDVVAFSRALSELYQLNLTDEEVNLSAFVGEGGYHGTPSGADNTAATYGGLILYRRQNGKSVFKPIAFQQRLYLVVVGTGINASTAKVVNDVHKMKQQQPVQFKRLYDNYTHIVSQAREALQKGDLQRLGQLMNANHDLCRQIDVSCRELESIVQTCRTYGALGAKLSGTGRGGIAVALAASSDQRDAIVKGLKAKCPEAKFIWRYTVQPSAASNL

TbMK (TbMK-HA) = biological target: T2, TbMK (TbMK-HA) (Trypanosoma brucei, UniProt Q57Y11); type: biochemical; settings: phosphate donor; with 833 uM [3H](R)-MVA, MgCl2 5 uM, pH 7.0, 30 C
T2 construct: gene Tb04.1D20.470

[2] = biological target: T1, LmMK (recombinant, bacterially expressed); assay: radioactive phosphorylation assay, chromatography, scintillation counting; type: biochemical

T2 sequence (Q57Y11 entry or part of it): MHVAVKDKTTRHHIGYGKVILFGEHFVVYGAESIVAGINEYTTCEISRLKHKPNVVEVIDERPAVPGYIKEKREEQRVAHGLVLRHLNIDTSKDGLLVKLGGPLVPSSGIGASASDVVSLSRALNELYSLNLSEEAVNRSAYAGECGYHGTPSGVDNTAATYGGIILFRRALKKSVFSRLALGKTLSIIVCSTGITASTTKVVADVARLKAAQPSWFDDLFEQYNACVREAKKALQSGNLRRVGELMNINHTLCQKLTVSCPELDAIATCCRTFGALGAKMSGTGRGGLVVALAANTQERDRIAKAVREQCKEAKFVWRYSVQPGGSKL

Row | Structure (SMILES) | X-ray crystal structure of complex, 1.9 A (also radioactive kinase assay) [1] | radioactive phosphorylation assay, chromatography, scintillation counting (TbMK (TbMK-HA)) | radioactive phosphorylation assay, chromatography, scintillation counting [2]
1 | C[C@@](O)(CCO)CC(=O)O [(R)-MVA] | The electron density clearly indicated the presence of (R)-MVA in molecule A |  | 
2 | Nc1ncnc2c1ncn2[C@@H]1O[C@H](COP(=O)(O)OP(=O)(O)OP(=O)(O)O)[C@@H](O)[C@H]1O [ATP] |  | an ATP-dependent MK activity in Leishmania and Trypanosoma | Activity of LmMK was observed after incubation of the enzyme with radiolabeled [^3H] (R)-MVA and ATP
